Experimental data as given in patent US11612574B2 (priority 2020, dated 2023).

How the values were obtained:
Calu-3 cells = test: Cell death and viability of Calu-3 cells (cytotoxicity, no virus); assay type: cell-based, human
Experimental: 4. Cytotoxicity assays were conducted in parallel, for these no virus was added.
a. Cell viability: was assessed by staining cells with the ViaStain™ Calcein AM/Hoechst/PI Viability Kit (Nexcelom, Cat #CS5-V006-1) per manufacturer's instructions and imaging with the Celígo Imaging Cytometer (Nexcelom). Briefly, live and metabolically active cells were detected using the Calcein AM stain (Ex/Em: 488/520). Dead cells were detected using the propidium iodide stain (PI, Ex/Em: 493/636). Total number of cells were detected using the Hoechst-nuclear stain (Ex/Em: 352/461). Thus, cell viability was assessed by comparing live cells counts (normalized to total cell count) across treatment groups, and cell cytotoxicity was assessed through comparison of dead cell counts (normalized to total cells) across treatment groups.

[1] = test system: interleukin-1beta and TNF-alpha; conditions: in vivo; cited from earlier work
SARS-CoV-2 [2] = assay type: cell-based
sigma-1 receptor [3] = biological target: T1, sigma-1 receptor (Homo sapiens, UniProt Q99720); conditions: cited from earlier work
T1 sequence (Q99720 whole entry, species assumed): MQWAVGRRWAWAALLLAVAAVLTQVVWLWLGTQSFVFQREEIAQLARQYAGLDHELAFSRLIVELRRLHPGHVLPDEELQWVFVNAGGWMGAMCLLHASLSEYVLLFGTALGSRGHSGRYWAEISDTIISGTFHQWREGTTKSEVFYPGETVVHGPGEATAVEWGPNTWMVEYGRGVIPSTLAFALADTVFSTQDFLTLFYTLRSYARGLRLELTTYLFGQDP

sigma = conditions: non-selective sigma binding assay; cited from earlier work
[4] = test system: Vero E6 cells infected with SARS-CoV-2; test: Neutral red cytoprotection/cytotoxicity in Vero E6 cells infected with SARS-CoV-2; conditions: Vero E6, dose response
Candida albican = conditions: in vivo; cited from earlier work
[5] = test system: CD4+ and CD8+ lymphocytes; conditions: cited from earlier work
SARS-CoV-2 [6] = conditions: cited from earlier work
sigma-1 receptor [7] = biological target: T1, sigma-1 receptor; conditions: cited from earlier work; remark: listed apart in the source
sigma-2 receptor = sigma-2 receptor (Homo sapiens, UniProt Q5BJF2); conditions: cited from earlier work
Chain of sigma-2 receptor (Q5BJF2 whole entry): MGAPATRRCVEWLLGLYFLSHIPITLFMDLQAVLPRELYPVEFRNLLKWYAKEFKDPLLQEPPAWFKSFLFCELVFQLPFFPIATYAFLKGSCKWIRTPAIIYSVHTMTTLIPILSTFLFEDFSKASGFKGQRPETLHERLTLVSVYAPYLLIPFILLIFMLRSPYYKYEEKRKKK

CCNC(C)Cc1cccc(C(F)(F)F)c1 (racemic) [fenfluramine, (RS)—N-ethyl-1-[3-(trifluoromethyl)phenyl]propan-2-amine]
cytotoxicity (cell death and viability versus controls) (Calu-3 cells; 20 μg/ml): not cytotoxic | cytotoxicity (cell death and viability versus controls) (Calu-3 cells; 40 μg/ml): cytotoxic | production of interleukin-1beta and TNF-alpha [1]: suppressed | average viral replication (mNeonGreen fluorescence normalized to total cell count) (SARS-CoV-2 [2]): about 2·10^3 | SARS-CoV-2 viral replication compared with control cells receiving only vehicle (SARS-CoV-2 [2]; Calu-3 cells, 50 mM fenfluramine as printed, 72 hr): statistically significantly (p<0.0001) lower | sigma-1 receptor modulation (sigma-1 receptor [3]): positive allosteric modulator | Ki (sigma): 0.266 µM | neutral red signal, virus infected cells ([4]; SARS-CoV-2 infected MOI 0.1, FIG. 4B): ~0.2 | neutral red signal, uninfected cells ([4]; uninfected cells, FIG. 4B): ~1.0

CCN[C@@H](C)Cc1cccc(C(F)(F)F)c1 (racemic) [dexfenfluramine]
CD3+ and CD8+ lymphocytes (Candida albican): marked increase | numbers of NK1.1+ cells (Candida albican): modest increase | number of CD4+ and CD8+ lymphocytes that produced IFN-gamma ([5]; HIV+ or HIV- patients): increased | number of CD8+ lymphocytes that produce TNF-alpha ([5]; HIV+ patients): increased | amount of IL-2 produced by CD4+ and CD8+ lymphocytes ([5]; lymphocytes from HIV+ patients): increased | sigma-1 receptor modulation (sigma-1 receptor [3]): positive modulators

CCN(CCO)CCCC(C)Nc1ccnc2cc(Cl)ccc12 (centres unmarked) [hydroxy-chloroquine]
inhibition of SARS-CoV-2 in vitro (SARS-CoV-2 [6]): inhibit

CCN(CC)CCCC(C)Nc1ccnc2cc(Cl)ccc12 (centres unmarked) [Chloroquine]
binding/activity at sigma-1 receptor (sigma-1 receptor [7]): mid-nM activity | binding/activity at sigma-2 receptor (sigma-2 receptor): low uM activity

O=C(CCCN1CCC(O)(c2ccc(Cl)cc2)CC1)c1ccc(F)cc1 [Haloperidol]
inhibition of SARS-CoV-2 in vitro (SARS-CoV-2 [6]): inhibit | binding/activity at sigma-2 receptor (sigma-2 receptor): low nM range
